According to patent publication US9422292B2, “Bromodomain inhibitors and uses thereof” (Constellation Pharmaceuticals, Inc., priority 2011, dated 2016):
Like-named read-outs stand apart in the source and are kept apart here.

Assays:
[1] = tested on: IL-6 secretion in THP-1 cells; test: Cell-based IL-6 quantification assay (ELISA, Mesoscale) in LPS-treated THP-1 cells; settings: Homo sapiens, LPS 4 μg/mL, 16 h, ELISA value/CellTiter-Glo ratio
Method: C. Cell-Based IL-6 Quantification Assay (ELISA, Mesoscale Assay):
100,000 THP-1 cells were seeded in RPMI1640-10% FBS in 96-well plates. LPS (E. Coli Invitrogen) in RPMI−10% FBS at a final concentration of 4 μg/mL was added to the wells and the cells are then incubated in the presence of various concentrations of compounds for 16 h. Plates are spun ([…], 5 min), an aliquot of 25 uL supernatant is transferred in to an ELISA plate (Mesoscale technology, MSD) and the detection of IL-6 is performed using manufacturer's instructions. The amount of cells in each well is assessed using CellTiter-Glo® (Promega). The ratio of ELISA value/CellTiter-Glo value is used to calculate the percent of inhibition of IL-6 secretion.

[2] = tested on: MYC mRNA in MV4:11 (AML) cells; test: cMyc RNA quantification assay (QuantiGene) in MV4:11 cells; assay type: cell-based; settings: Homo sapiens, 4 h, QuantiGene 2.0
Method: B. cMyc RNA Quantification Assay (QuantiGene® Assay):
MV4:11 (AML) cells were seeded in a 96-well plate and incubated in the presence of various concentrations of compounds for 4 h. Relative mRNA levels were quantitated by using QuantiGene 2.0 assay (Affymetrix) according to the manufacturer's recommendation. Signals were detected by using an Envision plate reader (Perkin-Elmer). Biological duplicates were averaged and normalized to vehicle (DMSO) control to calculate percent MYC mRNA levels.

[3] = molecular target: T1, BRD4 (BD1) (Homo sapiens, UniProt O60885); test: BRD4 AlphaLisa binding assay
T1 construct: His; made in house
Method: A. IC50 Measurements for Inhibitors Using BRD4 AlphaLisa Binding Assay.
Specifically, in a 384 well ProxiPlate BRD4 (BD1) (30 nM final) was combined with peptide (200 nM final) in 40 mM HEPES (pH 7.0), 40 mM NaCl, 1 mM DTT, 0.01% (w/v) BSA, and 0.008% (w/v) Brij-35 either in the presence of DMSO (final 1.2% DMSO) or compound dilution series in DMSO. After 20 minute incubation at room temperature Alpha streptavidin donor beads and AlphaLisa anti-Flag acceptor beads were added to a final concentration of 10 ug/mL each. After three hours equilibration plates were read on an Envision instrument and IC50s calculated using a four parameter non-linear curve fit.

[4] = BRD4 (BD1) 30 nM, biotinylated H4-tetraacetyl peptide 200 nM, read-out: BRD4 AlphaLisa

Row | Structure (SMILES) | IC50 [1] | IC50 [2] | IC50 [3, 4] | IC50 [3]
1 | Cc1nnc2n1-c1ccc(-c3ccc(N)nc3)cc1N(c1ccc(C(N)=O)cc1)CC2C (stereo in doubt) [Compound 69, (R)-4-(8-(6-aminopyridin-3-yl)-1,4-dimethyl-4H-benzo[b][1,2,4]triazolo[4,3-d][1,4]diazepin-6(5H)-yl)benzamide] | 1000 to 10000 nM | 1000 to 10000 nM | 100 to 1000 nM | 
2 | Cc1nnc2n1-c1ccc(-c3ccc(N)nc3)cc1N(c1ccc(C(N)=O)cc1)CC2C (stereo in doubt) [Compound 70, (S)-4-(8-(6-aminopyridin-3-yl)-1,4-dimethyl-4H-benzo[b][1,2,4]triazolo[4,3-d][1,4]diazepin-6(5H)-yl)benzamide] | 1000 to 10000 nM | 1000 to 10000 nM | < 100 nM | 
3 | Cc1nnc2n1-c1ccccc1N(c1ccc(Cl)cc1)CC2C (stereo not shown) [Compound 1, 6-(4-chlorophenyl)-1,4-dimethyl-5,6-dihydro-4H-benzo[b][1,2,4]triazolo[4,3-d][1,4]diazepine] | 100 to 1000 nM | 100 to 1000 nM |  | 100 to 1000 nM
4 | Cc1nnc2n1-c1ccccc1N(c1ccc(Cl)cc1)CC2 [Compound 2, 6-(4-chlorophenyl)-1-methyl-5,6-dihydro-4H-benzo[b][1,2,4]triazolo[4,3-d][1,4]diazepine] | 1000 to 10000 nM | 1000 to 10000 nM |  | 100 to 1000 nM
5 | Cc1nnc2n1-c1ccc(-c3ccccc3)cc1N(C)CC2 [Compound 4, 1,6-dimethyl-8-phenyl-5,6-dihydro-4H-benzo[b][1,2,4]triazolo[4,3-d][1,4]diazepine] | > 10000 nM |  | > 10000 nM | 
6 | Cc1nnc2n1-c1ccc(-c3ccc(N)nc3)cc1N(C)CC2 [Compound 5, 5-(1,6-dimethyl-5,6-dihydro-4H-benzo[b][1,2,4]triazolo[4,3-d][1,4]diazepin-8-yl)pyridin-2-amine] | 1000 to 10000 nM |  | 1000 to 10000 nM | 
7 | Cc1nnc2n1-c1ccc(-c3ccc(N)nc3)cc1NCC2 [Compound 6, 5-(1-methyl-5,6-dihydro-4H-benzo[b][1,2,4]triazolo[4,3-d][1,4]diazepin-8-yl)pyridin-2-amine] | > 10000 nM |  | 1000 to 10000 nM | 
8 | Cc1nnc2n1-c1ccc(-c3ccccc3)cc1NCC2 [Compound 7, 1-methyl-8-phenyl-5,6-dihydro-4H-benzo[b][1,2,4]triazolo[4,3-d][1,4]diazepine] | > 1000 nM |  | > 10000 nM | 
9 | Cc1nnc2n1-c1ccccc1NC(C)C2 (stereo not shown) [Compound 12, 1,5-dimethyl-5,6-dihydro-4H-benzo[b][1,2,4]triazolo[4,3-d][1,4]diazepine] | > 10000 nM |  | > 10000 nM | 
10 | Cc1nnc2n1-c1ccc(-c3cnn(C)c3)cc1N(c1ccc(Cl)cc1)CC2 [Compound 30, 4H-[1,2,4]triazolo[4,3-a][1,5]benzodiazepine,5,6-dihydro-1methyl-8-(1-methyl-1H-pyrazol-4-yl)-6-(4-chloro-phenyl)] |  |  | < 100 nM | 
11 | CCC1CN(c2ccc(Cl)cc2)c2ccccc2-n2c(C)nnc21 (stereo not shown) [Compound 32] |  |  |  | 1000 to 10000 nM
12 | Cc1nnc2n1-c1ccc(-c3cnn(C)c3)cc1N(c1ccc(C#N)cc1)C[C@@H]2C [Compound 45, (S)-4H-[1,2,4]triazolo[4,3-a][1,5]benzodiazepine,5,6-dihydro-1,4-dimethyl-8-(1-methyl-1H-pyrazol-4-yl)-6-(4-cyano-phenyl)] | > 1000 nM |  | 100 to 1000 nM | 
13 | Cc1nnc2n1-c1ccc(-c3cnn(C)n3)cc1N(c1ccc(C#N)cc1)C[C@@H]2C [Compound 74, (R)-4H-[1,2,4]Triazolo[4,3-a][1,5]benzodiazepine, 5,6-dihydro-1,4-dimethyl-8-(2-methyl-2H-1,2,3-triazole-4-yl)-6-(4-cyano-phenyl)] | > 1000 nM |  | 100 to 1000 nM | 
14 | Cc1nnc2n1-c1ccc(-c3ccc(N)nc3)cc1N(c1cnn(C)c1)C[C@H]2C [Compound 76, (R)-5-(1,4-dimethyl-6-(1-methyl-1H-pyrazol-4-yl)-5,6-dihydro-4H-benzo[b][1,2,4]triazolo[4,3-d][1,4]diazepin-8-yl)pyridin-2-amine] | 100 to 1000 nM | 100 to 1000 nM |  | 
15 | Cc1nnc2n1-c1ccc(-c3ccc(=O)[nH]c3)cc1N(c1ccc(S(C)(=O)=O)cc1)C[C@H]2C [Compound 78, (R)-5-(1,4-dimethyl-6-(4-(methylsulfonyl)phenyl)-5,6-dihydro-4H-benzo[b][1,2,4]triazolo[4,3-d][1,4]diazepin-8-yl)pyridin-2(1H)-one] |  | 1000 to 10000 nM | 100 to 1000 nM | 
16 | Cc1nnc2n1-c1ccc(-c3cnc(N)cn3)cc1N(c1ccc(S(C)(=O)=O)cc1)C[C@H]2C [Compound 79, (R)-5-(1,4-dimethyl-6-(4-(methylsulfonyl)phenyl)-5,6-dihydro-4H-benzo[b][1,2,4]triazolo[4,3-d][1,4]diazepin-8-yl)pyrazin-2-amine] |  | 100 to 1000 nM | < 100 nM | 

Second part, led by results:

Row | IC50 [1] | IC50 [2] | IC50 [3, 4] | Structure (SMILES) | IC50 [3]
17 | 1000 to 10000 nM |  | 1000 to 10000 nM | Cc1nnc2n1-c1ccccc1N(c1ccc(Cl)cn1)CC2 [Compound 8, 6-(5-chloropyridin-2-yl)-1-methyl-5,6-dihydro-4H-benzo[b][1,2,4]triazolo[4,3-d][1,4]diazepine] | 
18 | 1000 to 10000 nM |  | 1000 to 10000 nM | Cc1nnc2n1-c1ccccc1N(c1ccc(Cl)cc1)CC2CCO (stereo not shown) [Compound 9, 2-(6-(4-chlorophenyl)-1-methyl-5,6-dihydro-4H-benzo[b][1,2,4]triazolo[4,3-d][1,4]diazepin-4-yl)ethanol] | 
19 | 1000 to 10000 nM |  | 1000 to 10000 nM | CCNC(=O)CC1CN(c2ccc(Cl)cc2)c2ccccc2-n2c(C)nnc21 (stereo not shown) [Compound 10, 2-(6-(4-chlorophenyl)-1-methyl-5,6-dihydro-4H-benzo[b][1,2,4]triazolo[4,3-d][1,4]diazepin-4-yl)-N-ethylacetamide] | 
20 | 1000 to 10000 nM |  | 1000 to 10000 nM | Cc1nnc2n1-c1ccccc1N(c1ccc(Cl)cc1)CC21CC1CO (stereo not shown) [Compound 11, (6-(4-chlorophenyl)-1-methyl-5,6-dihydrospiro[benzo[b][1,2,4]triazolo[4,3-d][1,4]diazepine-4,1′-cyclopropan]-2′-yl)methanol] | 
21 | 100 to 1000 nM |  | 100 to 1000 nM | Cc1nnc2n1-c1ccc(Br)cc1N(c1ccc(Cl)cc1)CC2 [Compound 13, 8-bromo-6-(4-chlorophenyl)-1-methyl-5,6-dihydro-4H-benzo[b][1,2,4]triazolo[4,3-d][1,4]diazepine] | 
22 | 1000 to 10000 nM |  | 100 to 1000 nM | Cc1nnc2n1-c1ccc(-c3ccccc3)cc1N(c1ccc(Cl)cc1)CC2 [Compound 14, 6-(4-chlorophenyl)-1-methyl-8-phenyl-5,6-dihydro-4H-benzo[b][1,2,4]triazolo[4,3-d][1,4]diazepine] | 
23 |  |  | 100 to 1000 nM | Cc1nnc2n1-c1ccc(C#CC(C)(C)N)cc1N(c1ccc(Cl)cc1)CC2C (stereo not shown) [Compound 31, 4H-[1,2,4]triazolo[4,3-a][1,5]benzodiazepine,5,6-dihydro-1,4-dimethyl-8-(3-amino-3-methylbut-1-ynyll)-6-(4-chloro-phenyl)] | 
24 |  |  | 100 to 1000 nM | Cc1nnc2n1-c1ccc(Br)cc1N(c1ccc(Cl)cc1)CC21CC1 [Compound 33, 8-bromo-6-(4-chlorophenyl)-1-methyl-5,6-dihydrospiro[benzo[b][1,2,4]triazolo[4,3-d][1,4]diazepine-4,1′-cyclopropane]] | 
25 |  |  | 100 to 1000 nM | Cc1nnc2n1-c1ccccc1N(c1ccc(Cl)cc1)CC21CC1 [Compound 34, 6-(4-chlorophenyl)-1-methyl-5,6-dihydrospiro[benzo[b][1,2,4]triazolo[4,3-d][1,4]diazepine-4,1′-cyclopropane]] | 
26 |  |  | 100 to 1000 nM | Cc1nnc2n1-c1cc(F)ccc1N(c1ccc(Cl)cc1)CC2C (stereo not shown) [Compound 35, 4H-[1,2,4]triazolo[4,3-a][1,5]benzodiazepine,5,6-dihydro-1,4-dimethyl-9-fluoro-6-(4-chloro-phenyl)] | 
27 |  |  | 100 to 1000 nM | Cc1nnc2n1-c1ccc(C#CC(C)(C)O)cc1N(c1ccc(Cl)cc1)CC2C (stereo not shown) [Compound 36, 4H-[1,2,4]triazolo[4,3-a][1,5]benzodiazepine,5,6-dihydro-1,4-dimethyl-8-(3-hydroxy-3-methylbut-1-ynyl)-6-(4-chloro-phenyl)] | 
28 | > 1000 nM |  | 1000 to 10000 nM | Cc1nnc2n1-c1ccc(-c3cnc(N)nc3)cc1N(c1ccc(Cl)cc1)C[C@@H]2C [Compound 40, (S)-4H-[1,2,4]triazolo[4,3-a][1,5]benzodiaze-pine,5,6-dihydro-1,4-dimethyl-8-(2-aminopyrimidin-5-yl)-6-(4-chloro-phenyl)] | 
29 | > 1000 nM |  | 100 to 1000 nM | Cc1nnc2n1-c1ccc(C(=O)N3CCOCC3)cc1N(c1ccc(Cl)cc1)C[C@H]2C [Compound 56, 4-R-4H-[1,2,4]triazolo[4,3-a][1,5]benzodiazepine,5,6-dihydro-1,4-dimethyl-8-(morpholine-4-carbonyl)-6-(4-chloro-phenyl)] | 
